# Legend:
# blood glucose [1] = test: Insulin eye drops with absorption enhancer in xylazine/ketamine anesthetized rats, blood glucose
# blood D-glucose = test: Glucagon eye drops with surfactant, blood D-glucose; settings: 0.5% surfactant plus glucagon (30 μg) eye drops
# Method: Glucagon absorption from the eye was measured in rats given eye drops containing various surfactants plus glucagon (30 μg) (Eli Lilly, Indianapolis, Ind.) by monitoring an elevation in blood D-glucose levels. In these experiments, rats were anesthetized with sodium pentobarbital rather than xylazine/ketamin.
# Paired animals that receive eye drops containing the surfactant alone, or glucagon alone, were compared to animals receiving eye drops with the surfactant plus glucagon.
# blood glucose [2] = test: Intranasal insulin with […] TDM in anesthesia-induced hyperglycemia model; assay type: in vivo, mouse; settings: minus […] TDM
# Excerpt: Intranasal administration of drugs or agents are possible in animal models e.g. mice and rats, although the nasal opening in is very small. In the experiments and results described herein, an anesthesia-induced hyperglycemia model was used (described in Examples above). Hyperglycemic animals were induced by an intraperitoneal (IP) injection containing xylazine-ketamine and blood glucose levels were monitored over a period of time. Immediately after the xylazine-ketamine injection, there was an increase in the blood glucose levels as shown in FIG. 2 (closed dark circles), and blood glucose levels were about 450 mg/dl. […] Blood glucose levels peak to about 482 mg/dl by 30 minutes after the xylazine-ketamine injection (FIG. 2). […] At about the 75 minute time point, blood glucose levels gradually returned to the baseline level in a normoglycemic mouse, or about 80-100 mg/dl.
# food intake = settings: injection; cited from earlier work
# [3] = no alkylsaccharide, cited from earlier work
# [4] = system: Staphylococcus aureus (ATCC No. 6538); test: Log reduction of microorganisms in cultures with alkylglycoside; assay type: cell-based; settings: for Log reduction of cultures: PBS pH 7, 1 mg/mL PYY; for Log reduction of microorganisms: PBS pH 7, […] BSA
# Excerpt: (§1) 20110-2209. The viable microorganisms used in the invention were not more than five passages removed from the original ATCC culture. As described herein, one passage is defined as the transfer of organisms from an established culture to fresh medium and all transfers are counted.
# (§2) The culture conditions for the inoculum culture is substantially as described in Table IV. For example, suitable media can include but is not limited to, Soybean-Casein Digest or Sabouraud Dextrose Agar Medium. […]
# (§3) The suspension should be refrigerated if it is not used within 2 hours. To confirm the initial cfu per mL estimate, the number of cfu per mL in each suspension was determined using the conditions of media and microbial recovery incubation times listed in Table IV (e.g., from about 3 to about 7 days). This value serves to calibrate the size of inoculum used in the test. The bacterial and yeast suspensions were used within 24 hours of harvest; whereas the fungal preparation can be stored under refrigeration for up to 7 days.
# (§4) To determine which alkylglycoside formulations have antibacterial activity, the formulations were prepared in phosphate buffered saline (PBS) at pH 7. As a source of nutrition, either 1.5 mg/mL bovine serum albumin (BSA; see Tables V and VI) or 1 mg/mL of PYY was added (see Table VII) to the medium. BSA (CAS Number: 9048-46-8) was obtained from Sigma-Aldrich, St. Louis, Mo., USA, n-dodecyl-4-O-α-D-glucopyranosyl-β-D-glucopyranoside and n-tetradecyl-4-O-α-D-glucopyranosyl-β-D-glucopyranoside were obtained from Anatrace Inc., Maumee, Ohio, USA, and PYY was obtained from Bachem California Inc., Torrance, Calif., USA.
# (§5) Antibacterial activity of the alkylglycosides were conducted in four sterile, capped bacteriological containers of suitable size into which a sufficient volume of alkylglycoside solution had been transferred. Each container was inoculated with one of the prepared and standardized inoculums and mixed. The volume of the suspension inoculum was between about 0.5% and about 1.0% of the volume of the alkylglycoside solution. […]. To determine the level of inhibition of growth, or reduction of growth based on a logarithmic scale, the initial concentration of viable microorganisms in each test preparation was estimated based on the concentration of microorganisms in each of the standardized inoculum as determined by the plate-count method. The inoculated containers were then incubated at about 22.5° C.±2.5. The growth or non-growth of the microorganisms in each culture/container were again determined at day 14 and day 28. The number of cfu present in each calculation was determined by the plate-count procedure standard in the art for the applicable intervals. The change in the orders of magnitude of bacterium and/or fungi was then determined by subtracting the first calculated log 10 values of the concentrations of cfu per mL present at the start or beginning (e.g., day 0), from the log 10 values of the concentration of cfu per mL for each microorganism at the applicable test intervals (e.g., day 14 and day 28; see Tables V, VI and VII).
# [5] = system: Aspergillus niger (ATCC No. 16404); test: as above; assay type: cell-based; settings: for Log reduction of cultures: PBS pH 7, 1 mg/mL PYY; for Log reduction of microorganisms: PBS pH 7, […] BSA
# Excerpt: as §1, §2, §3, §4, §5
# [6] = system: Candida albicans (ATCC No. 10231); test: as above; assay type: cell-based; settings: for Log reduction of cultures: PBS pH 7, 1 mg/mL PYY; for Log reduction of microorganisms: PBS pH 7, […] BSA
# Excerpt: as §1, §2, §3, §4, §5
# [7] = system: Escherichia coli (ATCC No. 8739); test: as above; assay type: cell-based; settings: for Log reduction of cultures: PBS pH 7, 1 mg/mL PYY
# Excerpt: as §1, §2, §3, §4, §5
# [8] = Oral phenylephrine tablets with alkylsaccharide; assay type: in vivo, canine
# Method: In a canine model, subjects were dosed orally with various phenylephrine (PE) tablet formulations, and blood samples were taken to determine the rate of parent phenyl ethyl phenylephrine absorption. Blood levels of parent phenylephrine were measured. Three subject groups were created with each alkylsaccharide test group containing five subjects in each test group. All subject groups received 10 mg of phenylephrine as a single tablet. Each subject was in the fasting state for overnight and two hours post dose. Blood samples were taken at pre-dose, 5, 10, 15, 30, 45 min., 1, 2, and 3 hours.
# Comparator was the standard 30 mg (total weight including excipients) phenylephrine tablet was no absorption enhancer. Group number 2 tablets contain the alkylsaccharide designated A3, which is n-dodecyl-beta-D-maltoside in the amounts of 2.5 mg, 5 mg, and 7.5 mg, respectively. Group number three tablets contain the alkylsaccharide designated B3, which is sucrose monododecanoate, in the amounts of 5 mg, 10 mg, and 20 mg, respectively.
# human nasal epithelium = test: Irritation of nasal mucosa on daily intranasal administration; settings: 47 days
molecule,measurement,setting,value
"CCCCCCCOC1O[C@H](CO)[C@@H](O)[C@H](O)[C@H]1O (stereo partly shown) [heptylglucoside, heptylglucopyranoside]","effect as absorption enhancer for ocular insulin (blood glucose lowering), in words",blood glucose [1]; 0.5% enhancer,ineffective
decylsucrose,Blood Glucose Concentration,"blood glucose [1]; eye drops insulin + 0.5% enhancer, time 0 min",313 mg/dL
same,Blood Glucose Concentration,"blood glucose [1]; eye drops insulin + 0.5% enhancer, time 120 min",164 mg/dL
"CCCCCCCCCCO[C@@H]1O[C@H](CO)[C@@H](O[C@H]2O[C@H](CO)[C@@H](O)[C@H](O)[C@H]2O)[C@H](O)[C@H]1O [Decyl Maltoside, decyl-β-D-maltoside]","effect as absorption enhancer for ocular insulin (blood glucose lowering), in words",blood glucose [1]; 0.5% enhancer,prompt and sustained fall in blood glucose levels
same,"level of D-glucose in blood after eye drops with surfactant plus glucagon, in words",blood D-glucose,increase significantly
"insulin alone: insulin (Humalog), same dosage, minus 0.25% TDM",return of blood glucose to normoglycemic levels,blood glucose [2],never return to normoglycemic levels
same,time at which blood glucose levels start to decline,blood glucose [2]; same dosage,~120 minute time mark
"CCCCCCCCCOC1O[C@H](CO)[C@@H](O)[C@H](O)[C@H]1O (stereo partly shown) [nonylglucoside, nonylglucopyranoside]","effect as absorption enhancer for ocular insulin (blood glucose lowering), in words",blood glucose [1]; 0.5% enhancer,effectively stimulated insulin absorption
same,blood glucose level before reduction (from),"blood glucose [1]; eye drops insulin + 0.5% enhancer, initial value",297 mg/dL
same,blood glucose level after reduction (to),"blood glucose [1]; eye drops insulin + 0.5% enhancer, reduced value",150 mg/dL
PYY: gut hormone fragment peptide PYY3-36,reduction of food eaten versus usual,food intake,30%
"CCCCCCCCCCCCCO[C@@H]1O[C@H](CO)[C@@H](O[C@H]2O[C@H](CO)[C@@H](O)[C@H](O)[C@H]2O)[C@H](O)[C@H]1O [Tridecyl Maltoside, tridecyl-β-D-maltoside]","effect as absorption enhancer for ocular insulin (blood glucose lowering), in words",blood glucose [1]; 0.5% enhancer,effective
same,"effect as absorption enhancer for ocular insulin (blood glucose lowering), in words",blood glucose [1]; […] enhancer,sustained for the two hour time course of the experiment
same,"level of D-glucose in blood after eye drops with surfactant plus glucagon, in words",blood D-glucose,increase significantly
"Cc1cc2c(s1)Nc1ccccc1N=C2N1CCN(C)CC1 [olanzapine, Olanzapine]",time to peak concentrations,[3]; following an oral dose,approximately 6 hours
same,dose metabolized by first pass before reaching the systemic circulation,[3],approximately 40%
"CCCCCCOC1O[C@H](CO)[C@@H](O)[C@H](O)[C@H]1O (stereo partly shown) [hexylglucoside, Hexylglucopyranoside]","effect as absorption enhancer for ocular insulin (blood glucose lowering), in words",blood glucose [1]; 0.5% enhancer,ineffective
"CCCCCCCCCCCCO[C@@H]1O[C@H](CO)[C@@H](O[C@H]2O[C@H](CO)[C@@H](O)[C@H](O)[C@H]2O)[C@H](O)[C@H]1O [Dodecyl Maltoside, n-Dodecyl-4-O-α-D-glucopyranosyl-β-D-glucopyranoside]","effect as absorption enhancer for ocular insulin (blood glucose lowering), in words",blood glucose [1]; 0.5% enhancer,equally effective
same,"effect as absorption enhancer for ocular insulin (blood glucose lowering), in words","blood glucose [1]; 0.5% enhancer, listed as dodecyl-β-D-maltoside",prompt and sustained fall in blood glucose levels
same,Log reduction of cultures,[4]; Day 14,≧4.9 orders of orders of magnitude reduction
same,Log reduction of cultures,[4]; Day 28,≧4.9 orders of orders of magnitude reduction
same,Log reduction of microorganisms,[4]; Day 14,≧5.2 orders of orders of magnitude reduction
same,Log reduction of microorganisms,[4]; Day 28,≧5.2 orders of orders of magnitude reduction
same,Log reduction of cultures,[5]; Day 14,4.7 orders of orders of magnitude reduction
same,Log reduction of cultures,[5]; Day 28,4.7 orders of orders of magnitude reduction
same,Log reduction of microorganisms,[5]; Day 14,0.7 orders of orders of magnitude reduction
same,Log reduction of microorganisms,[5]; Day 28,No growth
same,Log reduction of cultures,[6]; Day 14,≧4.5 orders of orders of magnitude reduction
same,Log reduction of cultures,[6]; Day 28,≧4.5 orders of orders of magnitude reduction
same,Log reduction of microorganisms,[6]; Day 14,3.0 orders of orders of magnitude reduction
same,Log reduction of microorganisms,[6]; Day 28,≧5.3 orders of orders of magnitude reduction
same,Log reduction of cultures,[7]; Day 14,≧5 orders of orders of magnitude reduction
same,Log reduction of cultures,[7]; Day 28,≧5 orders of orders of magnitude reduction
same,Log reduction of microorganisms,"[7]; PBS pH 7, […] BSA, Day 28",0.1 orders of orders of magnitude reduction
same,increase of oral bioavailability of phenylephrine in compressed tablets,"[8]; dog, in vivo, po",up to 56%
"CCCCCCCCCCCC(=O)OC[C@H]1O[C@H](O[C@]2(CO)O[C@H](CO)[C@@H](O)[C@@H]2O)[C@H](O)[C@@H](O)[C@@H]1O [sucrose dodecanoate, sucrose monododecanoate]",irritation of the nasal mucosa,human nasal epithelium,no observable irritation
same,increase of oral bioavailability of phenylephrine in compressed tablets,[8]; maximum over the loadings tested,up to 50%

# Reference: patent publication US20180000942A1, “COMPOSITIONS FOR DRUG ADMINISTRATION” (priority 2013, published 2018)
